This passage reports IC50 results from patent US20230310428A1, “EGFR INHIBITOR AND PREPARATION METHOD AND USE THEREOF” (HONGYUN BIOTECH CO., LTD., priority 2020, published 2023).

Molecules are shown by their SMILES.

What all share (test): Growth inhibitory activity of compounds on BaF3 cell lines stably transfected with kinase (MTS, 48 h)
What all share (type): cell-based

Assay [1] has as its target T1, various mutants of kinase EGFR (BaF3 cell lines stably transfected with kinase) (Homo sapiens, UniProt P00533, L858R).
T1 construct: expressed in transfected cells; host or cells: BaF3
Particulars: BaF3 cells stably transfected with EGFR L858R, read-out: IC50, growth inhibition, L858R. In short, it runs like this:
(§1)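 Growth is measured by MTS reduction (OD 490 nm) after 48 h compound exposure at up to 10 µM in 8 steps of 1/3. Inhibition is calculated against a 0.1% DMSO control and cell-free blank, and IC50 is derived from it.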

The target of assay [2] is T2, various mutants of kinase EGFR (BaF3 cell lines stably transfected with kinase) (Homo sapiens, UniProt P00533, C797S/L858R/T790M).
T2 construct: expressed in transfected cells; host or cells: BaF3
Particulars: BaF3 cells stably transfected with EGFR L858R/T790M/C797S, read-out: IC50, growth inhibition, L858R/T790M/C797S. The gist of the method:
as §1

Assay [3] has as its target T3, various mutants of kinase EGFR (BaF3 cell lines stably transfected with kinase) (Homo sapiens, UniProt P00533, L858R/T790M).
T3 construct: expressed in transfected cells; host or cells: BaF3
To be noted: BaF3 cells stably transfected with EGFR L858R/T790M, read-out: IC50, growth inhibition, L858R/T790M. In short, it runs like this:
as §1

Assay [4] concerns the target T4, various mutants of kinase EGFR (BaF3 cell lines stably transfected with kinase) (Homo sapiens, UniProt P00533, T790M/C797S, form not given).
T4 construct: other: BaF3 cells stably transfected with EGFR Δ19Del/T790M/C797S; MTS, 48; other: BaF3 cell line stably transfected with EGFR Δ19Del/T790M/C7
To be noted: BaF3 cells stably transfected with EGFR Δ19Del/T790M/C797S, read-out: IC50, growth inhibition, Δ19Del/T790M/C797S. The gist of the method:
as §1

Assay [5] has as its target T5, various mutants of kinase EGFR (BaF3 cell lines stably transfected with kinase) (Homo sapiens, UniProt P00533).
T5 construct: other: BaF3 cells stably transfected with EGFR Δ19Del; MTS, 48 h; other: BaF3 cell line stably transfected with EGFR Δ19Del
To be noted: BaF3 cells stably transfected with EGFR Δ19Del, read-out: IC50, growth inhibition, Δ19Del. In short, it runs like this:
as §1

Assay [6] concerns the target T6, various mutants of kinase EGFR (BaF3 cell lines stably transfected with kinase) (Homo sapiens, UniProt P00533, T790M, form not given).
T6 construct: other: BaF3 cells stably transfected with EGFR Δ19Del/T790M; MTS, 48 h; other: BaF3 cell line stably transfected with EGFR Δ19Del/T790M; MTS, 48
To be noted: BaF3 cells stably transfected with EGFR Δ19Del/T790M, read-out: IC50, growth inhibition, Δ19Del/T790M. In short, it runs like this: as §1

T2 sequence (P00533 25-1210 T790M/C797S/L858R): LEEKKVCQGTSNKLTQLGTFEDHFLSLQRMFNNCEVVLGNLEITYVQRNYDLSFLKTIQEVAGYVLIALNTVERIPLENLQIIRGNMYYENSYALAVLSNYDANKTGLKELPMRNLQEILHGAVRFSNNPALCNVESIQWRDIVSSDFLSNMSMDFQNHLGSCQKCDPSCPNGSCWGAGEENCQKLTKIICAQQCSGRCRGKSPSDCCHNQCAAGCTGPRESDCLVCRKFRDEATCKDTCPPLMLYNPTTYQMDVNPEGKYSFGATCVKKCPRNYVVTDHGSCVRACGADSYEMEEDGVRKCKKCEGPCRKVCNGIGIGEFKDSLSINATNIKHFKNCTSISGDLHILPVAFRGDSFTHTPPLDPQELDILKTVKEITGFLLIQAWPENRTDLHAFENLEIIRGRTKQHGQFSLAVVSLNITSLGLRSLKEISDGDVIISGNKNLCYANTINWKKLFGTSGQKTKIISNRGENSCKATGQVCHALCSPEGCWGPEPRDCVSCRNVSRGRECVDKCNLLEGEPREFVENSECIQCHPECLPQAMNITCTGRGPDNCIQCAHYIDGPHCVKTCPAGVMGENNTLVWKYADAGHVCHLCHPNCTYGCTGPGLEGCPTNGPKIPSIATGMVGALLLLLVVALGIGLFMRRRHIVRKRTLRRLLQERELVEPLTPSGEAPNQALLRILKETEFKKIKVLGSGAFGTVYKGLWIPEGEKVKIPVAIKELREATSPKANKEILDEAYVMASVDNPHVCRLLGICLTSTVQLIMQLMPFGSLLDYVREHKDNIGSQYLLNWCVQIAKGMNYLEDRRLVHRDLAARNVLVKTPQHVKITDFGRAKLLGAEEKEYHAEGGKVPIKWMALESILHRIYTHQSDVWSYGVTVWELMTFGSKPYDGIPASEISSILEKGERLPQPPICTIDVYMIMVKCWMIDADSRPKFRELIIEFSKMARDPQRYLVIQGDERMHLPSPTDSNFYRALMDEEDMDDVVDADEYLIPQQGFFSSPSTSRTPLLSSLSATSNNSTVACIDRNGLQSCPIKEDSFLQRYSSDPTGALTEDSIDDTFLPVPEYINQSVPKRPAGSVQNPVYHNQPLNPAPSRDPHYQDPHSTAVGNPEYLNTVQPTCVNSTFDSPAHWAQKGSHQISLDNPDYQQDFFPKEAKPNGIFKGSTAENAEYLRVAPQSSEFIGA
T6 sequence (P00533 with tags, fused parts or gaps DEL746-750/T790M, form open): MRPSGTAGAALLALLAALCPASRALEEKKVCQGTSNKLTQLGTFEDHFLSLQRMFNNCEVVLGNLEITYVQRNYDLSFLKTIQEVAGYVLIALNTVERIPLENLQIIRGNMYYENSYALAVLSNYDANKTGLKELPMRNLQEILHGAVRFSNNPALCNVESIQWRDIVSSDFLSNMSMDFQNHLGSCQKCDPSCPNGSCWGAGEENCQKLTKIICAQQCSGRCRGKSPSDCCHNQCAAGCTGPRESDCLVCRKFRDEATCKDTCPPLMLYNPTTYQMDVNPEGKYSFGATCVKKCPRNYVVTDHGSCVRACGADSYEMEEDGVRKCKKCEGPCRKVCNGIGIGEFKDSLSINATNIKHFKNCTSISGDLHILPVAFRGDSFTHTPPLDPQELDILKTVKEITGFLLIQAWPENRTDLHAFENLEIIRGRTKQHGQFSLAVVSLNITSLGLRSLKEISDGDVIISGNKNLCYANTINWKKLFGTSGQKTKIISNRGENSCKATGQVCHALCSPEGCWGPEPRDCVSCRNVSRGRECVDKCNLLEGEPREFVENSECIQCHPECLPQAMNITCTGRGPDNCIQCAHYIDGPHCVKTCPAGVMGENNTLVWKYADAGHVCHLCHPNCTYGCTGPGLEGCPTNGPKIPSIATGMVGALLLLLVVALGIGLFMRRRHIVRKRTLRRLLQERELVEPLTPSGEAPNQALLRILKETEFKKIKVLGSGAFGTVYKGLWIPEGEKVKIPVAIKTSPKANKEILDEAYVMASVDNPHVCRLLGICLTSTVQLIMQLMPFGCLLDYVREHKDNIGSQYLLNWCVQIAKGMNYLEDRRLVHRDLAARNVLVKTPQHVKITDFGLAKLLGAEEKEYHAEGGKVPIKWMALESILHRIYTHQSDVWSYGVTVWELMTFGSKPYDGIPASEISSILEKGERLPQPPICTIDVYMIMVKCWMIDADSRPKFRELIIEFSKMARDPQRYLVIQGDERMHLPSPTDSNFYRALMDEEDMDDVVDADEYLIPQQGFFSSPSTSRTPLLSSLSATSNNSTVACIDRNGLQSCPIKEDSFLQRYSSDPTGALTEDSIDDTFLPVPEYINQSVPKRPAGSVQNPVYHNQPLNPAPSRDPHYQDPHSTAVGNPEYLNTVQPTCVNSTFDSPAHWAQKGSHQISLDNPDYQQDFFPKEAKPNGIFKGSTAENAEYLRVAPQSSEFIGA
T4 sequence (P00533 with tags, fused parts or gaps DEL746-750/T790M/C797S, form open): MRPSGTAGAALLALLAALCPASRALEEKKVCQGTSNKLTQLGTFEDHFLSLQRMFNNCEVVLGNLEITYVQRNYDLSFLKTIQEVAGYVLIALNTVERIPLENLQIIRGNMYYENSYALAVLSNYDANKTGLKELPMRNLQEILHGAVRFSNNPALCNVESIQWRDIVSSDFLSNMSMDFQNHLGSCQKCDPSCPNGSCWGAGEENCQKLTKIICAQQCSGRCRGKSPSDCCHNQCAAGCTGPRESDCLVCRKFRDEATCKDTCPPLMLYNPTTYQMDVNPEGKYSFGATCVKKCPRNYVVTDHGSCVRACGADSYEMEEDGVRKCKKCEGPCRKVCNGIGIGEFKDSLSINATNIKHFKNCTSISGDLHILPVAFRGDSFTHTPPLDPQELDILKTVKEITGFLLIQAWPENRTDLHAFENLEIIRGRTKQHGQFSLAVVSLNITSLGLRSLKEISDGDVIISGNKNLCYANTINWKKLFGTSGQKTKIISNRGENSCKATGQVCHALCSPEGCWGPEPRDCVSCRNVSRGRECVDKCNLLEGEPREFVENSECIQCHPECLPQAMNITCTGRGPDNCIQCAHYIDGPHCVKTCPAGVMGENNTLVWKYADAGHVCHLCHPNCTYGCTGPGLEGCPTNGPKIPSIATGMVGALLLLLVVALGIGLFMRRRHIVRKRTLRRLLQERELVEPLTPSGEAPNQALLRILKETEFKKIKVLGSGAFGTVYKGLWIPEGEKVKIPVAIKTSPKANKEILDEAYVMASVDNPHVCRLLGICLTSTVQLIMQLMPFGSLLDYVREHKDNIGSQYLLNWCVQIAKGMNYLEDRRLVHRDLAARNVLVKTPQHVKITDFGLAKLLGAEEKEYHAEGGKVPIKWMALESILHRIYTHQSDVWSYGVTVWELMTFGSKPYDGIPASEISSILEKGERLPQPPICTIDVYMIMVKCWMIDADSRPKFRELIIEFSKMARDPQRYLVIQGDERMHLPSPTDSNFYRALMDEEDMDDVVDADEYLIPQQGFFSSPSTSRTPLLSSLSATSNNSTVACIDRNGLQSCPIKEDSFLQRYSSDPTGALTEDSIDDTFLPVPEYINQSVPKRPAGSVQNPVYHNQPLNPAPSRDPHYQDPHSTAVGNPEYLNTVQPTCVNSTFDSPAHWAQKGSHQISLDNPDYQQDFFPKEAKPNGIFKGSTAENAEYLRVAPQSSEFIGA
T3 sequence (P00533 25-1210 T790M/L858R): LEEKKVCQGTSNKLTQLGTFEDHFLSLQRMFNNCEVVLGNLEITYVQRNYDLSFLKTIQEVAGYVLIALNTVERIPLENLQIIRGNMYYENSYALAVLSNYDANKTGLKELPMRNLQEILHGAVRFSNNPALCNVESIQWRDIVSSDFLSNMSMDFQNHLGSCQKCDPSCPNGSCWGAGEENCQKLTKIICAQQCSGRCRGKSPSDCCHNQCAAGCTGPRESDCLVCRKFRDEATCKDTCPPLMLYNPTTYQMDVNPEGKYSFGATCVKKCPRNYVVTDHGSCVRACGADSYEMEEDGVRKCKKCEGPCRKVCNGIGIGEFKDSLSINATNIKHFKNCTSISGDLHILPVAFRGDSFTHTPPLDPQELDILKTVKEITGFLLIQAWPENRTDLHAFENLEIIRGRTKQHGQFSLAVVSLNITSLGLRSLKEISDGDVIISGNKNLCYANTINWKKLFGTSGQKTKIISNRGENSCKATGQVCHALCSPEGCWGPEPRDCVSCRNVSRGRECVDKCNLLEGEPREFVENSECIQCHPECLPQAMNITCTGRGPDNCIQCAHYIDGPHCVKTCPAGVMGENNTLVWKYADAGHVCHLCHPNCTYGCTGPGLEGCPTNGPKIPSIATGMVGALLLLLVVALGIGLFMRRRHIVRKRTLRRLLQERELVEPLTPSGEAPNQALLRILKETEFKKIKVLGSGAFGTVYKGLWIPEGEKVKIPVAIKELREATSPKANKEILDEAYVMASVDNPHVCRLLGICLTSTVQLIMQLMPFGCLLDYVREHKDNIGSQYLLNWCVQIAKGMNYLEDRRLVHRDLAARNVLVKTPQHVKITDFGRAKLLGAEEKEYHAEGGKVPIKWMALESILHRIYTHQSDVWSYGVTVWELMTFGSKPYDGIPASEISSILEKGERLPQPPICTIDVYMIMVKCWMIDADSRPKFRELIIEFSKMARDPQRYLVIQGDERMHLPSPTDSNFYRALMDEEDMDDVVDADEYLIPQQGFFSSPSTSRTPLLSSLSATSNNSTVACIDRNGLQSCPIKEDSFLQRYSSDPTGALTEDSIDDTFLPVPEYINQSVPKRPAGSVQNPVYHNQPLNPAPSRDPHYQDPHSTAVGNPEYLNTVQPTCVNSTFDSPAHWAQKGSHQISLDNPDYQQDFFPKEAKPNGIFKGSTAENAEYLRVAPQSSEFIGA

For the molecule `COc1cc(N2CCC(N3CCN(C)CC3)CC2)c(C)cc1Nc1ncc(Br)c(Nc2ccc3nccnc3c2N(C)S(=O)(=O)C(C)C)n1` [Compound I-134], the IC50 in assay [1] was 50 to 500 nM; in assay [2], ≤ 50 nM; in assay [3], ≤ 50 nM; in assay [4] it was ≤ 50 nM; in assay [5] it was 50 to 500 nM; in assay [6], ≤ 50 nM.
For the molecule `CCc1cc(Nc2ncc(Br)c(Nc3ccc4nccnc4c3N(C)S(=O)(=O)C(C)C)n2)c(OC)cc1N1CCC(N2CCN(C)CC2)CC1` [Compound I-135], the IC50 was 50 to 500 nM in assay [1]; ≤ 50 nM in assay [2]; ≤ 50 nM in assay [3]; ≤ 50 nM in assay [4]; 50 to 500 nM in assay [5]; ≤ 50 nM in assay [6].
Take `CCc1cc(Nc2ncc(Br)c(Nc3ccc4nccnc4c3N(C)S(=O)(=O)C(C)C)n2)c(OC)cc1N1CCC(N(C)C)CC1` [Compound I-137]: the IC50 is ≤ 50 nM in assay [1]; ≤ 50 nM in assay [2]; ≤ 50 nM in assay [3]; ≤ 50 nM in assay [4]; 50 to 500 nM in assay [5]; ≤ 50 nM in assay [6].
In the case of `CCc1cc(Nc2ncc(Br)c(Nc3ccc4nccnc4c3N(C)S(=O)(=O)C(C)C)n2)c(OC)cc1N1CCC(N(C)C)C1` (stereo not drawn) [Compound I-138], the IC50 in assay [1] is 50 to 500 nM; in assay [2], 50 to 500 nM; in assay [3], ≤ 50 nM; in assay [4] it was ≤ 50 nM; in assay [5], 50 to 500 nM; in assay [6], 50 to 500 nM.
On to `CCc1cc(Nc2ncc(Cl)c(Nc3ccc4nccnc4c3N(C)S(=O)(=O)C(C)C)n2)c(OC)cc1N1CCC(N(C)C)CC1` [Compound I-142], for which the IC50 in assay [1], in assay [2], in assay [3], in assay [4], in assay [5] and in assay [6] was ≤ 50 nM each time.
In the case of `CCc1cc(Nc2ncc(Cl)c(Nc3ccc4nccnc4c3N(C)S(=O)(=O)C(C)C)n2)c(OC)cc1N1CCC(N(C)C)C1` (stereo not drawn) [Compound I-143], the IC50 in assay [1] was 50 to 500 nM; in assay [2], 50 to 500 nM; in assay [3] it was 50 to 500 nM; in assay [4] it was ≤ 50 nM; in assay [5], 50 to 500 nM; in assay [6] it was ≤ 50 nM.
With `COc1cc(N2CCC(N3CCN(C)CC3)CC2)c(C)cc1Nc1ncc(Br)c(Nc2ccc3nccnc3c2N(C2CC2)S(C)(=O)=O)n1` [Compound I-154], the IC50 in assay [1], in assay [2], in assay [3], in assay [4], in assay [5] and in assay [6] was ≤ 50 nM in each case.
For `CCc1cc(Nc2ncc(Br)c(Nc3ccc4nccnc4c3N(C3CC3)S(C)(=O)=O)n2)c(OC)cc1N1CCC(N2CCN(C)CC2)CC1` [Compound I-155], the IC50 was ≤ 50 nM in assay [1]; ≤ 50 nM in assay [2]; ≤ 50 nM in assay [3]; ≤ 50 nM in assay [4]; 50 to 500 nM in assay [5]; ≤ 50 nM in assay [6].
For the molecule `CCc1cc(Nc2ncc(Br)c(Nc3ccc4nccnc4c3N(C3CC3)S(C)(=O)=O)n2)c(OC(F)(F)F)cc1N1CCC(N2CCN(C)CC2)CC1` [Compound I-156], the IC50 was 50 to 500 nM in assay [1]; 50 to 500 nM in assay [2]; 50 to 500 nM in assay [3]; ≤ 50 nM in assay [4]; 50 to 500 nM in assay [5]; ≤ 50 nM in assay [6].
`CCc1cc(Nc2ncc(Br)c(Nc3ccc4nccnc4c3N(C3CC3)S(C)(=O)=O)n2)c(OC)cc1N1CCC(N(C)C)CC1` [Compound I-157]: the IC50 in assay [1], in assay [2], in assay [3], in assay [4], in assay [5] and in assay [6] was ≤ 50 nM each time.
Take `CCc1cc(Nc2ncc(Br)c(Nc3ccc4nccnc4c3N(C3CC3)S(C)(=O)=O)n2)c(OC)cc1N1CCC(N(C)C)C1` (stereo not drawn) [Compound I-158]: the IC50 in assay [1] was 50 to 500 nM; in assay [2], ≤ 50 nM; in assay [3], ≤ 50 nM; in assay [4], ≤ 50 nM; in assay [5], 50 to 500 nM; in assay [6], ≤ 50 nM.
Consider `COc1cc(N2CCC(N3CCN(C)CC3)CC2)c(C)cc1Nc1ncc(Cl)c(Nc2ccc3nccnc3c2N(C2CC2)S(C)(=O)=O)n1` [Compound I-159], for which the IC50 in assay [1], in assay [2], in assay [3], in assay [4], in assay [5] and in assay [6] was ≤ 50 nM each time.
Turning to `CCc1cc(Nc2ncc(Cl)c(Nc3ccc4nccnc4c3N(C3CC3)S(C)(=O)=O)n2)c(OC)cc1N1CCC(N2CCN(C)CC2)CC1` [Compound I-160], the IC50 in assay [1] was 50 to 500 nM; in assay [2], ≤ 50 nM; in assay [3], ≤ 50 nM; in assay [4], ≤ 50 nM; in assay [5], ≤ 50 nM; in assay [6], ≤ 50 nM.
As for `CCc1cc(Nc2ncc(Cl)c(Nc3ccc4nccnc4c3N(C3CC3)S(C)(=O)=O)n2)c(OC(F)(F)F)cc1N1CCC(N2CCN(C)CC2)CC1` [Compound I-161], the IC50 in assay [1], in assay [2], in assay [3], in assay [4], in assay [5] and in assay [6] was 50 to 500 nM each time.
`CCc1cc(Nc2ncc(Cl)c(Nc3ccc4nccnc4c3N(C3CC3)S(C)(=O)=O)n2)c(OC)cc1N1CCC(N(C)C)CC1` [Compound I-162]: the IC50 in assay [1], in assay [2], in assay [3], in assay [4], in assay [5] and in assay [6] was ≤ 50 nM in each case.
As for `CCc1cc(Nc2ncc(Cl)c(Nc3ccc4nccnc4c3N(C3CC3)S(C)(=O)=O)n2)c(OC)cc1N1CCC(N(C)C)C1` (stereo not drawn) [Compound I-163], the IC50 in assay [1], in assay [2], in assay [3], in assay [4], in assay [5] and in assay [6] was ≤ 50 nM throughout.
Turning to `COc1nc(N2CCC(N3CCN(C)CC3)CC2)ccc1Nc1ncc(Cl)c(Nc2ccc3nccnc3c2N(C)S(C)(=O)=O)n1` [Compound I-164], the IC50 fell in the range of 50 to 500 nM in assay [1]; 50 to 500 nM in assay [2]; 50 to 500 nM in assay [3]; 50 to 500 nM in assay [4]; 500 to 2500 nM in assay [5]; 500 to 2500 nM in assay [6].
In the case of `CN1CCN(C2CCN(c3ccc(Nc4ncc(Cl)c(Nc5ccc6nccnc6c5N(C)S(C)(=O)=O)n4)c(OC(F)(F)F)c3)CC2)CC1` [Compound I-166], the IC50 in assay [1] is 50 to 500 nM; in assay [2], 50 to 500 nM; in assay [3] it was 50 to 500 nM; in assay [4] it was ≤ 50 nM; in assay [5] it was 50 to 500 nM; in assay [6], 50 to 500 nM.
In the case of `COc1cc(N2CCC(N3CCN(C)CC3)CC2)c(CC2CC2)cc1Nc1ncc(Cl)c(Nc2ccc3nccnc3c2N(C)S(C)(=O)=O)n1` [Compound I-167], the IC50 is ≤ 50 nM in assay [1]; ≤ 50 nM in assay [2]; ≤ 50 nM in assay [3]; ≤ 50 nM in assay [4]; 50 to 500 nM in assay [5]; ≤ 50 nM in assay [6].
As to `COc1cc(N2CCC(N3CCN(C)CC3)CC2)c(Cc2ccccc2)cc1Nc1ncc(Cl)c(Nc2ccc3nccnc3c2N(C)S(C)(=O)=O)n1` [Compound I-168], the IC50 was 500 to 2500 nM in assay [1]; 500 to 2500 nM in assay [2]; 500 to 2500 nM in assay [3]; 500 to 2500 nM in assay [4]; 500 to 2500 nM in assay [5]; 50 to 500 nM in assay [6].
Take `COc1cc(N2CCC(N(C)C)CC2)c(C)cc1Nc1ncc(Cl)c(Nc2ccc3nccnc3c2N(C)S(C)(=O)=O)n1` [Compound I-169]: the IC50 in assay [1], in assay [2], in assay [3], in assay [4], in assay [5] and in assay [6] was ≤ 50 nM throughout.
Consider `CCc1cc(Nc2ncc(Cl)c(Nc3ccc4nccnc4c3N(C)S(C)(=O)=O)n2)c(OC)cc1N1CCC(N(C)C)CC1` [Compound I-170], for which the IC50 in assay [1], in assay [2], in assay [3], in assay [4], in assay [5] and in assay [6] was ≤ 50 nM throughout.
